Consider seven compounds from US10093630B2, “Pyrazole compounds and methods of making and using same” (ABIDE THERAPEUTICS, INC., priority 2014, dated 2018).

One may read the inhibition as the percentage by which the read-out fell short of the control. As a reminder, the IC50 is the concentration that inhibits the measured activity by half.

Holding throughout (experiment): In vitro competitive activity-based protein profiling (gel-based, FP-Rh or HT-01 probe)
What all share (assay type): biochemical

The target of one test is T1, PLA2G7 (Mus musculus, UniProt Q60963).
T1 construct: Proteomes (mouse brain membrane fraction or cell lysates); from tissue; host or cells: mouse brain membrane fraction (or cell lysates, not specified)
T1 sequence (Q60963 22-440): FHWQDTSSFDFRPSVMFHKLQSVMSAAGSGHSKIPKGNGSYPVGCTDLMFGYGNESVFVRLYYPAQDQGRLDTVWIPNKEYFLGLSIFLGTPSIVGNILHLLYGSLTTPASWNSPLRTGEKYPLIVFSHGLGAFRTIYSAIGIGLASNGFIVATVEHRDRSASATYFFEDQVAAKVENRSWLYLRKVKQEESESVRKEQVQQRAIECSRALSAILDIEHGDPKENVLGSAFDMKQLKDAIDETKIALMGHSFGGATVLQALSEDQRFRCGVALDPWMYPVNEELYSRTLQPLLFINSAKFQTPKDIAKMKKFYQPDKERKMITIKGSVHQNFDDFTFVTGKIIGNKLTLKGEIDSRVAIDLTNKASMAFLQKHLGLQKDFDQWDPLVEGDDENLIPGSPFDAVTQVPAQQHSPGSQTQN
The settings on record: for inhibition at 1 µM: 1 μM inhibitor, read-out: % Inhibition at 1 μM, D = PLA2G7; for inhibition at 10 µM: 10 μM inhibitor, read-out: % Inhibition at 10 μM, D = PLA2G7. The gist of the method: (§1)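 Mouse brain membrane or cell lysate proteomes (1.0 mg/mL) preincubated with inhibitors 30 min at 37° C, then labelled with FP-Rh or HT-01 for 30 min at 37° C. After SDS-PAGE, activity quantified from fluorescent band intensity.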

The target in a further test is T2, MAGL (Mus musculus, UniProt O35678).
T2 construct: Proteomes (mouse brain membrane fraction or cell lysates); from tissue; host or cells: mouse brain membrane fraction (or cell lysates, not specified)
T2 sequence (O35678 1-303): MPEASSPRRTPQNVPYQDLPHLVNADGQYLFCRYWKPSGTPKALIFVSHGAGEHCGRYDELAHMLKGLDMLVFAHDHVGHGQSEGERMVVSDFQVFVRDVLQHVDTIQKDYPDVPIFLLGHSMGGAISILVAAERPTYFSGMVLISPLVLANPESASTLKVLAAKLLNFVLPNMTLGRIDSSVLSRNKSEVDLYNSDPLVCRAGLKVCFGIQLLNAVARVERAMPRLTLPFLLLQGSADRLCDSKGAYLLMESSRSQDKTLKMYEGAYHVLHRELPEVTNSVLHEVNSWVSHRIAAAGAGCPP
The settings on record: for inhibition at 1 µM: 1 μM inhibitor; for inhibition at 10 µM: 10 μM inhibitor. The gist of the method: as §1

The target in a further test is T3, FAAH (Mus musculus, UniProt O08914).
T3 construct: Proteomes (mouse brain membrane fraction or cell lysates); from tissue; host or cells: mouse brain membrane fraction (or cell lysates, not specified)
T3 sequence (O08914 1-579): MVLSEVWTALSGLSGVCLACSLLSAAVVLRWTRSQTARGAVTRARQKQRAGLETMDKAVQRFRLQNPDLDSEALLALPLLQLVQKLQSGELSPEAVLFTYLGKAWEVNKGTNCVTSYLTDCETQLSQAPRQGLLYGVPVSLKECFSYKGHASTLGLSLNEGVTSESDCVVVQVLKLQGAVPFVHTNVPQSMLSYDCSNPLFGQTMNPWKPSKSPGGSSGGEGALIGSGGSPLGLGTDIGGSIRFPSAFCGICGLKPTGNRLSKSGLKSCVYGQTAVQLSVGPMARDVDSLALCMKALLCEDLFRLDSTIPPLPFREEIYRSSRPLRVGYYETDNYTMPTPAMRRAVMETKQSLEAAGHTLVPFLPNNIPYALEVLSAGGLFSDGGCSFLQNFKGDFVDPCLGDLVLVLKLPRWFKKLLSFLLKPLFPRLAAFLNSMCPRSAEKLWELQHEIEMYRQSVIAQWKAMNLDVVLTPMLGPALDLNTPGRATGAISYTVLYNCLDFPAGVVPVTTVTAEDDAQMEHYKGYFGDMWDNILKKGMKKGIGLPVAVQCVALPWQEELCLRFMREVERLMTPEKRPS
The following applies: for inhibition at 1 µM: 1 μM inhibitor, read-out: % Inhibition at 1 μM, B = FAAH; for inhibition at 10 µM: 10 μM inhibitor, read-out: % Inhibition at 10 μM, B = FAAH. The procedure, abridged: as §1

The target in another test is T4, ABHD6 (Mus musculus, UniProt Q8R2Y0).
T4 construct: Proteomes (mouse brain membrane fraction or cell lysates); from tissue; host or cells: mouse brain membrane fraction (or cell lysates, not specified)
T4 sequence (Q8R2Y0 1-336): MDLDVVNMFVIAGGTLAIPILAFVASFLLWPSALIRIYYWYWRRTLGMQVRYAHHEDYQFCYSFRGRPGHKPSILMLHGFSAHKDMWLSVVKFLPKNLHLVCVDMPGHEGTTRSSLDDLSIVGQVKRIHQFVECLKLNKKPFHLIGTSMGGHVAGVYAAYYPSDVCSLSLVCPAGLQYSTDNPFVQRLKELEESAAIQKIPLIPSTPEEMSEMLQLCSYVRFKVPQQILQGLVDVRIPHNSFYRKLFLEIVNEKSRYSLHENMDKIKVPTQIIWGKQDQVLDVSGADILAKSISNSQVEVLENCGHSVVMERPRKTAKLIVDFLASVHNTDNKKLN
The settings on record: for inhibition at 1 µM: 1 μM inhibitor, read-out: % Inhibition at 1 μM, C = ABHD6; for inhibition at 10 µM: 10 μM inhibitor, read-out: % Inhibition at 10 μM, C = ABHD6; for IC50: mouse brain membrane fraction or cell lysates, 30 min preincubation at 37° C., read-out: Mouse (IC50 value, nM) ABHD6. The procedure, abridged:
as §1

With `O=C(N1CCN(Cc2ccccc2)CC1)n1cc(C(F)(F)F)cn1` [Example 152, (4-Benzylpiperazin-1-yl)(4-(trifluoromethyl)-1H-pyrazol-1-yl)methanone], the inhibition at 1 µM at PLA2G7, on MAGL, at FAAH and at ABHD6 was greater than 75% each time. The inhibition at 10 µM at PLA2G7, on MAGL, on FAAH and at ABHD6 was greater than 75% each time.

On to `O=C(c1cnn(C(=O)N2CCN(Cc3cncnc3)CC2)c1)N1CCOCC1` [Example 56, (4-(Morpholine-4-carbonyl)-1H-pyrazol-1-yl)(4-(pyrimidin-5-ylmethyl)piperazin-1-yl)methanone], for which the inhibition at 1 µM on PLA2G7 and on ABHD6 was less than 25% throughout. Besides, the inhibition at 10 µM at PLA2G7 is greater than 75%; at MAGL, less than 25%; on FAAH it was less than 25%; on ABHD6, greater than 75%.

Regarding `O=C(N1CCN(Cc2ccncn2)CC1)n1cc(-c2ccccc2)cn1` [Example 62, (4-Phenyl-1H-pyrazol-1-yl)(4-(pyrimidin-4-ylmethyl)piperazin-1-yl)methanone], the inhibition at 1 µM at PLA2G7 and at ABHD6 was greater than 75% throughout. The inhibition at 10 µM on PLA2G7 is greater than 75%; at MAGL it was less than 25%; on FAAH, greater than 75%; at ABHD6, greater than 75%.

Consider `O=C(N1CCN(c2ccc(N3CCCC3)cc2)CC1)n1cc(C(F)(F)F)cn1` [Example 241, (4-(4-(Pyrrolidin-1-yl)phenyl)piperazin-1-yl)(4-(trifluoromethyl)-1H-pyrazol-1-yl)methanone], for which the inhibition at 1 µM at PLA2G7, on MAGL, at FAAH and on ABHD6 was greater than 75% throughout. Also, the inhibition at 10 µM on PLA2G7, at MAGL, on FAAH and on ABHD6 was greater than 75% in each case. Further, the IC50 on PLA2G7 (mouse brain membrane fraction or cell lysates, 30 min preincubation at 37° C.) is less than 100 nM; on MAGL (mouse brain membrane fraction or cell lysates, 30 min preincubation at 37° C., read-out: Mouse (IC50 value, nM) MAGL), less than 100 nM; at FAAH (mouse brain membrane fraction or cell lysates, 30 min preincubation at 37° C., read-out: Mouse (IC50 value, nM) FAAH), less than 100 nM; at ABHD6, less than 100 nM.

With `O=C(N1CCN(Cc2ccncc2)CC1)n1cc(-c2ccccc2)cn1` [Example 59, (4-Phenyl-1H-pyrazol-1-yl)(4-(pyridin-4-ylmethyl)piperazin-1-yl)methanone], the inhibition at 1 µM on PLA2G7 and on ABHD6 was greater than 75% each time. In addition, the inhibition at 10 µM on PLA2G7 is greater than 75%; on MAGL, 25 to 75%; at FAAH, greater than 75%; at ABHD6, greater than 75%. Also, the concentration for half-maximal inhibition (IC50) at ABHD6 lay within 100 to 1000 nM.

On to `CN(CCN(C)C(=O)n1cc(C#N)cn1)C(=O)c1ccccc1` [Example 182, 4-Cyano-N-methyl-N-(2-(N-methylbenzamido)ethyl)-1H-pyrazole-1-carboxamide], for which the inhibition at 1 µM on PLA2G7 is less than 25%; at MAGL, less than 25%; on FAAH, greater than 75%; on ABHD6 it was less than 25%. Moreover, the inhibition at 10 µM on PLA2G7, on MAGL, on FAAH and at ABHD6 was greater than 75% each time.

As to `N#Cc1cnn(C(=O)N2CCN(Cc3ccc(Oc4ccccc4)cc3)CC2)c1` [Example 18, 1-(4-(4-Phenoxybenzyl)piperazine-1-carbonyl)-1H-pyrazole-4-carbonitrile], the inhibition at 1 µM at PLA2G7, at MAGL, on FAAH and at ABHD6 was greater than 75% throughout. In addition, the inhibition at 10 µM at PLA2G7, on MAGL, at FAAH and at ABHD6 was greater than 75% in each case.
